row,Compound,melting point [°C]
1,COc1ccc(C(C=NO)C(C)C)cc1OC (stereo not given),89
2,COc1cc2occ(C(=O)Nc3cccnc3)c2cc1Br,210 to 212
3,COCCOCCOC(=O)C#CC(=O)/C=C/c1ccc(OC)cc1,41 to 42
4,COc1cccc2c1Sc1ccccc1C21CCN(C#N)CC1,145 to 146
5,COC(=O)c1ccc2c(c(C)nn2C)c1C(=O)NC(C)(C(N)=O)C(C)C (stereo not given),221 to 222
6,CC[C@H](c1ccc(C(F)(F)F)cc1)N(Cc1ccc(C(=O)O)cc1)S(=O)(=O)c1ccc(Cl)cc1,105 to 107
7,C[N+]([O-])=C(Cn1ccnc1)c1cccs1,162 to 164
8,CC(CCc1ccc(F)cc1)(Cn1ccnc1)Sc1cc(Cl)ccc1Cl (stereo not given),148
9,CC(NC(=O)C(F)(F)F)C(=O)O (stereo not given),68
10,CC(C)CCCC(C)C1CCC2C3CC=C4CC(OCCCCCCO)CCC4(C)C3CCC12C (stereo not given),75.9 to 81
11,CCCN1CCC(c2ccccc2)=C(C(=O)NCC)C1,80 to 83
12,COc1ccc(CCN(CCc2ccc(-c3ccccc3)cc2)C(=O)CCCCC(N)=O)cc1OC,177 to 179
13,CCCCCCOc1ccc2c(ccc3nc(OCCCCCC)ccc32)n1,91
14,COC(=O)c1cc(-c2ccc(C)cc2)n(Cc2ccc(Cl)cc2Cl)n1,105
15,O=c1c(Br)c(OCc2ccc(F)cc2)ccn1Cc1cccc(F)c1,180 to 183
16,CCCN(CCC(N)=O)CCC(N)=O,101 to 102
17,Cc1cc(Cn2nc(C(F)(F)C(F)(F)F)nc2C(F)(F)F)ccc1N,60 to 63
18,CCOC(=O)C(C)Oc1ncn(-c2ccc(OC)cc2)n1 (stereo not given),62 to 64
19,NC(=O)NCC#CCN1CCCC1,71 to 73
20,COc1ccc2c(c1)sc1c(C(=O)Nc3nnn[nH]3)cnc(=O)n12,234 to 235
21,CCCCCCCCCCOc1ccc(Br)cc1OCCCCCCCCCC,39.5 to 40
22,CCCCCCCc1ccccc1C=CC(=O)c1ccc(OCC=C(C)C)cc1O,65 to 67

row,Compound,melting point [°C]
1,Cc1cc2c(cc1C)OCC(NNc1ncnc3c1ncn3C1OC(CO)C(O)C1O)C2 (stereo not given),170 to 172
2,Nc1ccc2nc(-c3ccc4c(c3)OCO4)ncc2c1,191 to 192
3,COc1cc2c(cc1-c1nc3cc(-c4ccccc4)ccc3o1)oc1ccccc12,155 to 160
4,COC(=O)CCC(=O)c1cc(NC(C)=O)ccc1O,145 to 147
5,COc1ccc(-c2nc3nccnc3[nH]2)c(OCC#N)c1,232 to 233
6,COC(=O)c1c(CSc2nccn2C)nc2cc(OC)c(OC)cc2c1-c1ccc(OC)c(OC)c1,159 to 160
7,COCCc1nc2c(N)nc3cc(OCCn4cccc4)ccc3c2n1CC(C)(C)O,168 to 169
8,CN(Cc1nc(-c2cc(C(C)(C)C)c(O)c(C(C)(C)C)c2)cn1COCC[Si](C)(C)C)c1ccc([N+](=O)[O-])cc1,149 to 151
9,Fc1ccc2[nH]cc(Cc3ccncc3)c2c1,141 to 142
10,CCNc1nc(=S)n(CC)c2nc(C3CC3)[nH]c12,265
11,C=C1CC2C(CCC3(C)C2CCC3(OC(=O)CCCCC)C(C)=O)C2(COC(C)=O)CCC(=O)C=C12 (stereo not given),111 to 112
12,OCc1cc(CCCCCCCOc2ccc(C3=NCCO3)cc2)on1,122 to 124
13,CCCCS(=O)(=O)N[C@@H](Cc1ccc(NC(=O)NC(=O)c2ccc(C#N)cc2)cc1)C(=O)OC(C)(C)C,171 to 173
14,CCCCOc1ccc(NC(=O)c2cnc(C(=O)OC)c(Cl)c2)cc1,121 to 123
15,CCOC(=O)C=Cc1c(OCc2ccc(OCc3nc(-c4ccccc4)oc3C)cc2)ccc2ccccc12,73 to 74
16,COc1nc(C)cnc1N,75 to 76.5
17,CC(C)(C#N)OC(=O)Nc1ccc(-c2ncn(-c3ccc(OC(F)(F)F)cc3)n2)cc1,172 to 175
18,Cc1nn(C)cc1C(=O)NC(C#N)c1ccco1 (stereo not given),122
19,N#Cc1c(-c2ccc(Cl)cc2)[nH]c(Br)c1Cl,262 to 263
20,CCn1c(-c2cc(OC)c(OC)cc2S(N)(=O)=O)cc(=Nc2c(C)cc(C)c(S(N)(=O)=O)c2C)n(C)c1=O,173 to 178
21,c1cncc(C2=NNC(c3cccnc3)S2)c1 (stereo not given),77 to 78

# The remaining lines, values ahead:
row,melting point [°C],Compound
1,153 to 155,Cc1c(-c2ccccc2)[nH]c(=O)n1C1CCN(CCc2ccccc2)CC1
2,158 to 159,FC(F)(F)c1cccc(N2CCN(c3nc4cccc5c4n3CCC5)CC2)c1
3,185 to 190,O=C(O)c1ccccc1-c1c2ccc(=O)cc-2oc2cc(O)ccc12
4,94 to 95,Cc1sc(-c2ccccc2)nc1COc1ccc(CO)cc1
5,111 to 112,CC(C)(C)OC(=O)N1CC(CCl)c2ccc([N+](=O)[O-])cc21 (stereo not given)
6,90,CN1CCC(NC(c2cccc(C(F)(F)F)c2)c2nc3ccccc3[nH]2)CC1 (stereo not given)
7,> 260,O=C1c2ccccc2C(=O)c2sc(-c3ccc(F)cc3F)nc21
8,82 to 83,C1=Cc2ccccc2SS1
9,> 220,O=C1Nc2ccccc2C12COc1ccc3nonc3c12 (stereo not given)
10,199 to 201,CC(=O)Nc1cccc2c(=O)n(C)c3ccccc3c(=O)c12
11,159,NC(=O)C(O)(C(N)=O)c1ccccc1
12,138 to 140,O=C(O)Cc1ncc2c(n1)-c1ccc(Cl)cc1C(c1ccccc1F)=NC2
13,140 to 142,CCSc1ccc(-c2cccnc2)c2c1C(=O)CC(C)C2 (stereo not given)
14,143 to 144,COC(=O)c1c(-c2cccs2)c2cc(OCc3ccccc3)ccc2c(=O)n1CC(C)C
15,81,COC(=O)c1ccc(OCCNC(=O)OCc2ccccc2)c(Cl)c1
16,147 to 149,CN(CC(=O)O)C(=O)c1c(N)cccc1I
17,234 to 235,CC1CC(=O)NN=C1c1ccc(-n2cnc3c2CCCC3)nc1 (stereo not given)
18,110,OC[C@@H]1CCCN1c1nc2ccccc2s1
19,160 to 165,COC(=O)C=C(c1ccccc1)c1ccc2nc(N)n(S(=O)(=O)C(C)C)c2c1
20,250 to 252,CC(C)n1nc(-c2sc(NC(=O)C3CC3)nc2-c2ccc(F)cc2)ccc1=O
21,174 to 176,CC(C)c1cc(-c2ccncc2)c(-c2ccc(F)cc2)n1CCC1CC(O)CC(=O)O1 (stereo not given)

row,melting point [°C],Compound
1,141 to 144,CC1CC(=O)c2cc(OCc3ccc4ccccc4n3)cnc2C1 (stereo not given)
2,125 to 126,CC(C)(COc1ccc(C(N)=O)cn1)NCc1ccccc1
3,114,CN[C@@H](CSC(c1ccccc1)(c1ccccc1)c1ccccc1)C(=O)O
4,85 to 87,CN1C(=O)CCC1c1cncc(Br)c1 (stereo not given)
5,110,CCOC(=O)c1ccc(OCC2CN(c3cccnn3)CCO2)cc1 (stereo not given)
6,116 to 117,COc1ccc(C2=NN(C3CCOCC3)C(=O)[C@H]3CC=CC[C@@H]23)cc1OC1CCCC1 (relative stereo)
7,133 to 135,Nc1ccccc(Br)c1=O
8,49.5 to 50,CSc1ccc(OC(=O)OCc2ccccc2Cl)cc1
9,218 to 219,N#CN=C(N)Cc1ccc2c(c1)Nc1nccnc1S2
10,158 to 159,O=C1CC2CC(O)(c3ccccc3)CC2C1 (stereo not given)
11,177 to 179,COc1ccc(C(=O)O)cc1OC1CCSC1 (stereo not given)
12,143 to 146,Cc1nc(-n2cc(C(O)c3ccccc3)nn2)sc1C(=O)NCc1ccccc1 (stereo not given)
13,133 to 135,C=C1Oc2cc(OS(=O)(=O)C(F)(F)F)ccc2C(=O)C1c1ccccc1 (stereo not given)
14,107 to 109,COc1cc(Br)ccc1Oc1ccccc1O
15,175 to 177,CC1CCc2c(c(-c3ccccc3)nc(=O)n2C(C)C)C1 (stereo not given)
16,194 to 196,Cc1ccc2nc(-c3cccnc3N)n(-c3ccc(CC(=O)c4ccccc4)cc3)c2n1
17,242 to 244,O=C1CCC(c2ccc(C(=O)Nc3ccccc3F)cc2)=NN1
18,145,O=C1C=CC(c2ccccc2)(c2ccccc2)C=C1O
19,74 to 76,Clc1ccc(C2CNCCN2)cc1Cl (stereo not given)
20,58 to 61,Cn1nnc(-c2cccc(Oc3cccc(C(F)(F)F)c3)n2)n1
21,111 to 112,CCCCc1ccc(NC(=O)OCc2ccccc2)c(=O)n1CC(=O)OC

row,melting point [°C],Compound
1,> 250,CC1(S(=O)(=O)c2ccccc2)CCc2nc(-c3ccccc3)[nH]c(=O)c2C1 (stereo not given)
2,192 to 194,N#Cc1ccccc1-c1ccc(CN2C(=O)C3(COc4cc5c(cc43)CCO5)c3ccccc32)cc1 (stereo not given)
3,202 to 203,Cc1oc(-c2ccccc2)nc1C(=O)COc1ccc(C#N)cc1
4,221 to 223,CC(C)n1nc(-c2cc(C(=O)O)cnc2-c2ccccc2)ccc1=O
5,168 to 169,O=c1nc(N(CCO)c2ccccc2)sc2ncccc12
6,152,COCCCn1c(COc2ccccc2)nc2c(N)nc3ccccc3c21
7,161 to 162,CCOC(=O)N1CCCN(c2nc3ccccc3[nH]2)CC1
8,72.5,CCOC(=O)c1ccc(NO)cc1
9,169 to 170,Oc1ccc(-c2noc(C3(C(O)(C4CC4)C4CC4)CC3)c2-c2ccccc2)cc1
10,193 to 196,COc1ccc(C)c(NC(=O)CC2C3CC4CC(C3)CC2C4)c1 (stereo not given)
11,82 to 84,CCOC(=O)Cc1ccc2c(c1)CC(NC(C)=O)C2 (stereo not given)
12,204 to 206,COC(=O)c1cc(O)c2c(c1)c1ccccc1n2C
13,212,O=C(O)c1cc2sccc2cn1
14,226 to 227,Cc1nnc(C2=C(O)c3ccccc3S(=O)(=O)N2C)o1
15,176 to 178,O=c1cc(-c2ccncn2)nc2n1CCOCC2Br (racemic)
16,100 to 102,O=C1c2cc(OCc3ccccc3)ccc2OCC1Oc1ccccc1 (stereo not given)
17,141 to 142,CN1CCC(=C2c3ccccc3CCc3sc(Br)cc32)CC1
18,184 to 186,Cc1ccccc1-c1c(CS)n(C)c(=O)c2ccccc12
19,170 to 172,CCCc1cc(N2CCC(NCC(O)c3ccnc4ccccc34)CC2)nc2sc(C(N)=O)c(N)c12 (stereo not given)
20,155 to 156,CCC(C)n1c(=O)ccc2cnc(Nc3ccccc3)nc21 (stereo not given)

# Reference: a melting point compilation (Tetko et al.; mined from patent text by program, amines drawn as free bases though some values may be those of a salt)
